In one test the target is human HPK1 (MAP4K1) (Homo sapiens (Human), UniProt Q92918). Nature of the test: HPK1 IC50 Assay (TR-FRET peptide phosphorylation). It counts as biochemical. The settings on record: 0.15 nM HPK1, 10 μM ATP, 1 μM STK S1 peptide substrate; geometric mean. An outline of the steps:
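Pre-activated, dually phosphorylated baculovirus-expressed HPK1 kinase domain (0.15 nM) preincubated 15 min with compound, then reacted 3 h at 25° C with 10 μM ATP and 1 μM STK S1 peptide in BES pH 7.0 buffer. Phosphopeptide read by TR-FRET (665/620 nm); four-parameter fit, geometric-mean IC50.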
In general terms: In TR-FRET formats the signal depends on donor and acceptor labels being close together.
human HPK1 (MAP4K1), sequence (Q92918 17-274): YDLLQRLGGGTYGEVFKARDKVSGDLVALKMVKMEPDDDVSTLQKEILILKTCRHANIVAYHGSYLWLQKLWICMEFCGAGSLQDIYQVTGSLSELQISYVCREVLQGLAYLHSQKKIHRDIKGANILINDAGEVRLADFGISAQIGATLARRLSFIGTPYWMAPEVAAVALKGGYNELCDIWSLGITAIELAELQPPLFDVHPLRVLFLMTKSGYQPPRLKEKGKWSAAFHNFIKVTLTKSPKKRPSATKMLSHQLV
For orientation: IC50 means the concentration at which inhibition is half-maximal. For the molecule `CCNC(=O)c1cc(Nc2nc(-c3ccc4c(c3)N([C@H]3C[C@@](C)(N5CCCCC5)C3)C(=O)C4(C)C)cc3ncn(C(C)C)c23)c(F)c(F)c1Cl` [Example 288, 2-chloro-5-((6-(3,3-dimethyl-1-((1s,3s)-3-methyl-3-(piperidin-1-yl)cyclobutyl)-2-oxoindolin-6-yl)-3-isopropyl-3H-imidazo[4,5-c]pyridin-4-yl)amino)-N-ethyl-3,4-difluorobenzamide], the IC50 was found to be 0.08 nM.

In turn, `CC(C)n1cnc2cc(-c3ccc4c(c3)N([C@H]3C[C@@](C)(N5CCCCC5)C3)C(=O)C4(C)C)nc(Nc3cc(C(=O)NC4(C(F)F)CC4)c(Cl)cc3F)c21` [Example 294, 2-chloro-N-(1-(difluoromethyl)cyclopropyl)-5-((6-(3,3-dimethyl-1-((1s,3s)-3-methyl-3-(piperidin-1-yl)cyclobutyl)-2-oxoindolin-6-yl)-3-isopropyl-3H-imidazo[4,5-c]pyridin-4-yl)amino)-4-fluorobenzamide] showed an IC50 of 0.08 nM.

With “N-(1-(difluoromethyl)cyclopropyl)-5-((6-(3,3-dimethyl-1-((1s,3s)-3-methyl-3-(piperidin-1-yl)cyclobutyl)-2-oxo-2,3-dihydro-1H-pyrrolo[3,2-b]pyridin-6-yl)-3-isopropyl-3H-imidazo[4,5-c]pyridin-4-yl)amino)-2,3,4-trifluorobenzamide [Example 280]”, 0.05 nM corresponded to half-maximal inhibition (IC50).

The test is the same for the next values; noted with them: recombinant HPK1 kinase domain 0.15 nM, 10 μM ATP, 1 μM STK S1 peptide; geometric mean of multiple experiments.
On to `CNC(=O)c1cc(Nc2nc(-c3ccc4c(c3)N([C@H]3C[C@@H](N5CCCC6(CC6)C5)C3)C(=O)C43CCN(C(C)=O)CC3)cc3ncn(C4CC4)c23)ccc1C` [Example 166], for which the IC50 was determined as 0.1 nM.

`CC(=O)N1CCC2(CC1)C(=O)N([C@H]1C[C@@H](N3CCCCC3)C1)c1cc(-c3cc4ncn(C(C)C)c4c(Nc4ccc(C)c(C(=O)NCCO)c4)n3)ccc12` [Example 132]: the IC50 was 0.1 nM.

`CC(=O)N1CCC2(CC1)C(=O)N([C@H]1C[C@@H](N3CCCCC3)C1)c1cc(-c3cc4ncn(C(C)C)c4c(Nc4cc(C(=O)NC5CCC5)c(C)cc4F)n3)ccc12` [Example 76]: the IC50 is 0.2 nM.

As to `COCCNC(=O)c1cc(Nc2nc(-c3ccc4c(c3)N([C@H]3C[C@@H](N5CCCCC5)C3)C(=O)C43CCN(C(C)=O)CC3)cc3ncn(C(C)C)c23)c(F)cc1C` [Example 86], the IC50 was found to be 0.2 nM.

On to `COCCNC(=O)c1cc(Nc2nc(-c3ccc4c(c3)N([C@H]3C[C@@H](N5CCCCC5)C3)C(=O)C4(C)C)cc3ncn(C(C)C)c23)c(F)cc1C` [Example 116], for which the IC50 was found to be 0.2 nM.

Consider `CC(=O)N1CCC2(CC1)C(=O)N([C@H]1C[C@@H](N3CCCCC3)C1)c1cc(-c3cc4ncn(C(C)C)c4c(Nc4cc(C(=O)NC(C)C)c(C)cc4F)n3)ccc12` [Example 129], for which the IC50 turned out to be 0.2 nM.

Take `CC(C)n1cnc2cc(-c3cnc4c(c3)N([C@H]3C[C@@](C)(N5CCCCC5)C3)C(=O)C4(C)C)nc(Nc3cc(C(=O)NC4(CF)CC4)c(Cl)c(F)c3F)c21` [Example 211, 2-Chloro-5-((6-(3,3-dimethyl-1-((1s,3s)-3-methyl-3-(piperidin-1-yl)cyclobutyl)-2-oxo-2,3-dihydro-1H-pyrrolo[3,2-b]pyridin-6-yl)-3-isopropyl-3H-imidazo[4,5-c]pyridin-4-yl)amino)-3,4-difluoro-N-(1-(fluoromethyl)cyclopropyl)benzamide]: the IC50 stood at 0.1 nM.

Consider `CC(C)n1cnc2cc(-c3cnc4c(c3)N([C@H]3C[C@@](C)(N5CCCCC5)C3)C(=O)C43CCOCC3)nc(Nc3cc(C(=O)NC4(C(F)F)CC4)c(Cl)c(F)c3F)c21` [Example 210, 2-Chloro-N-(1-(difluoromethyl)cyclopropyl)-3,4-difluoro-5-((3-isopropyl-6-(1′-((1s,3s)-3-methyl-3-(piperidin-1-yl)cyclobutyl)-2′-oxo-1′,2,2′,3,5,6-hexahydrospiro[pyran-4,3′-pyrrolo[3,2-b]pyridin]-6′-yl)-3H-imidazo[4,5-c]pyridin-4-yl)amino)benzamide], for which the IC50 came to 0.08 nM.

On to `Cc1c(C(=O)NC2(C(F)F)CC2)cc(Nc2nc(-c3cnc4c(c3)N(C3CC(C)(N5CCC6C[C@@H]6C5)C3)C(=O)C4(C)C)cc3ncn(C(C)C)c23)c(F)c1F` (stereo partly drawn) [Example 232, 5-((6-(1-((1s,3s)-3-(3-azabicyclo[4.1.0]heptan-3-yl)-3-methylcyclobutyl)-3,3-dimethyl-2-oxo-2,3-dihydro-1H-pyrrolo[3,2-b]pyridin-6-yl)-3-isopropyl-3H-imidazo[4,5-c]pyridin-4-yl)amino)-N-(1-(difluoromethyl)cyclopropyl)-3,4-difluoro-2-methylbenzamide], for which the IC50 was determined as 0.09 nM.

Take `Cc1cc(F)c(Nc2nc(-c3ccc4c(c3)N([C@H]3C[C@@H](N5CCC(C)(C)C5)C3)C(=O)C43CCN(C4COC4)CC3)cc3ncn(C(C)C)c23)cc1C(=O)NC(C)C` [Example 100]: the IC50 worked out at 0.3 nM.

As to `CNC(=O)c1cc(Nc2nc(-c3ccc4c(c3)N([C@H]3C[C@@H](NCC(C)(C)O)C3)C(=O)C4(C)C)cc3ncn(C(C)C)c23)c(F)cc1C` [Example 15], the IC50 worked out at 0.1 nM.

`Cc1ccc(Nc2nc(-c3ccc4c(c3)N([C@H]3C[C@@H](N5CCC[C@@H](O)C5)C3)C(=O)C4(C)C)cc3ncn(C4CC4)c23)cc1C(N)=O` [Example 37]: the IC50 turned out to be 0.1 nM.

On to `CC(C)n1cnc2cc(-c3cnc4c(c3)N([C@H]3C[C@@](C)(N5CCC[C@@H](F)C5)C3)C(=O)C4(C)C)nc(Nc3cc(C(=O)NC4(C(F)F)CC4)c(Cl)c(F)c3F)c21` [Example 201, 2-Chloro-N-(1-(difluoromethyl)cyclopropyl)-3,4-difluoro-5-((6-(1-((1S,3s)-3-((R)-3-fluoropiperidin-1-yl)-3-methylcyclobutyl)-3,3-dimethyl-2-oxo-2,3-dihydro-1H-pyrrolo[3,2-b]pyridin-6-yl)-3-isopropyl-3H-imidazo[4,5-c]pyridin-4-yl)amino)benzamide], for which the IC50 was found to be 0.2 nM.

As for `Cc1ccc(Nc2nc(-c3ccc4c(c3)N([C@H]3C[C@@H](N5CCCCC5)C3)C(=O)C4(C)C)cc3ncn(C(C)C)c23)cc1C(=O)N[C@@H](C)CF` [Example 29], the IC50 is 0.1 nM.

For the molecule `Cc1ccc(Nc2nc(-c3ccc4c(c3)N([C@H]3C[C@@H](N5CCCCC5)C3)C(=O)C4(C)C)cc3ncn(C(C)C)c23)cc1C(=O)NCC(C)C` [Example 139], the IC50 was 0.06 nM.

Regarding `CC(C)n1cnc2cc(-c3cnc4c(c3)N([C@H]3C[C@@](C)(N5CC6CC6C5)C3)C(=O)C4(C)C)nc(Nc3cc(C(=O)NC4(C(F)F)CC4)c(Cl)c(F)c3F)c21` (stereo partly drawn) [Example 234, 5-((6-(1-((1s,3s)-3-(3-Azabicyclo[3.1.0]hexan-3-yl)-3-methylcyclobutyl)-3,3-dimethyl-2-oxo-2,3-dihydro-1H-pyrrolo[3,2-b]pyridin-6-yl)-3-isopropyl-3H-imidazo[4,5-c]pyridin-4-yl)amino)-2-chloro-N-(1-(difluoromethyl)cyclopropyl)-3,4-difluorobenzamide], the IC50 was determined as 0.3 nM.

In the case of `CNC(=O)c1cc(Nc2nc(-c3ccc4c(c3)N([C@H]3C[C@@H](NC(C)C)C3)C(=O)C4(C)C)cc3ncn(C(C)C)c23)ccc1C` [Example 11], the IC50 stood at 0.1 nM.

On to `CNC(=O)c1cc(Nc2nc(-c3ccc4c(c3)N([C@H]3C[C@@H](N5C6COCC5C6)C3)C(=O)C4(C)C)cc3ncn(C(C)C)c23)c(F)cc1C` [Example 9], for which the IC50 is 0.1 nM.

(Values after US11203591B2, “Substituted 6-azabenzimidazole compounds” (Gilead Sciences, Inc., priority 2018, dated 2021).)
